# Patent publication US20200276168A1, “Sustained Release Pharmaceutical Compositions and Methods of Use” (Qrono, Inc., priority 2015, published 2020)
# System: head and neck squamous cell carcinoma cells
# Experiment: head and neck squamous cell carcinoma xenograft model, tumor volume monitored for 4 weeks
# Assay type: in vivo, mice
# Details: payload equal to low dose sustained release formulation (210 nanograms), FIG. 2
# Description: Athymic mice were injected subcutaneously with head and neck squamous cell carcinoma cells to form tumors. Mice were divided into groups and treated with a sustained release composition according to the present invention, QR206, at a high dose (2.1 micrograms) a low dose (210 nanograms), or with a low dose of unformulated drug (epothilone D, 210 nanograms). Tumor volume was monitored for 4 weeks.
structure (smiles),measurement,value
"C/C1=C/C[C@@H](/C(C)=C/c2csc(C)n2)OC(=O)C[C@H](O)C(C)(C)C(=O)[C@H](C)[C@@H](O)[C@@H](C)CCC1 [EpoD, Epothilone D]",tumor growth rate of vehicle only control compared with the unformulated drug,higher tumor growth rate
